{"source": "patent US7125848B2", "about": "“Methods of treating non-inflammatory gastrointestinal tract disorders using Cav2.2 subunit calcium channel modulators” (Dynogen Pharmaceuticals, Inc., priority 2003, dated 2006)", "test_system": "HVA calcium channel currents in GI tract afferent DRG neurons", "assay_type": "cell-based, rat"}
{"substance": "Omega-conotoxin GVIA (CKSHYPGSSCSHYPTSYNCCRSCNHYPYTKRCY; VARIANT (0)...(0) omega-conotoxin GVIA; listed as Conus geographus)", "values": [{"measurement": "calcium current amplitude as percentage of control amplitudes", "result": "59±4", "unit": "%"}]}
